According to patent US10953012B2, “Heterocyclic compounds for the inhibition of pask” (BioEnergenix LLC, priority 2011, dated 2021):

Experiments:
PASK [1] = molecular target: PASK (UniProt #Q96RG2; residues 879-1323) (Homo sapiens (Human), UniProt Q96RG2); experiment: PASK ATP Radiochemical Assay; format: biochemical; details: 33P-ATP radiochemical assay; read-out: IC50 Kinase Domain
Method: PASK ATP Radiochemical Assay Purified PASK (UniProt #Q96RG2; human recombinant N-terminal GST tagged construct, residues 879-1323) from insect cells (final concentration 5 nM) is added to freshly prepared Base Reaction Buffer containing 20 mM HEPES (pH 7.5), 10 mM MgCl2, 1 mM EGTA, 0.02% Brij35, 0.02 mg/ml BSA, 0.1 mM Na3VO4, 2 mM DTT, 1% DMSO and Myelin Basic Protein (20 μM final). Test compounds in DMSO are then added and the mixture, followed by delivery of ^33P-ATP (specific activity 0.01 μCi/μl final) to initiate the reaction. The kinase reaction is incubated for 120 min at room temperature. The entire reaction mixture is washed through onto a P81 Phosphocellulose paper and washed three times for 10 minutes in 75 mM phosphoric acid and once in methanol prior to drying and scintillation counting.

PASK [2] = molecular target: PASK (Homo sapiens (Human), UniProt Q96RG2); experiment: PAS Kinase FRET Assay; format: biochemical; details: TR-FRET assay; read-out: IC50 Kinase Domain
Sequence of PASK (Homo sapiens (Human), UniProt Q96RG2) (Q96RG2 999-1251): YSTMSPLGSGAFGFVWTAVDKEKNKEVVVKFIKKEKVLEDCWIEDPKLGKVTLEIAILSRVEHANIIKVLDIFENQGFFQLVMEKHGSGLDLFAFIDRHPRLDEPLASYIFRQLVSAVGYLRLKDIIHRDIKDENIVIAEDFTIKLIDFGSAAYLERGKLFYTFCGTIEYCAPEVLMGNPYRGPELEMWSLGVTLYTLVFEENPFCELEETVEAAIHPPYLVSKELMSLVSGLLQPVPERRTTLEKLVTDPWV
Outline: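 Reaction buffer: 50 mM HEPES, 10 mM MgCl2, 1 mM EGTA, 2 mM DTT, 0.01% Tween-20. Test compounds (eleven-point series prepared at 4× final) preceded PASK and substrate/ATP. Reaction ran 2 h at 25 °C in the dark, then stopped. Phospho-ULight peptide detected by Eu-antibody TR-FRET, 665/615 nm ratio.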

CK2a2 = CK2a2 (Homo sapiens (Human), UniProt P19784); experiment: Biochemical Assay for CK2 Activity; details: 33P-ATP radiochemical assay; read-out: IC50 CK2 a2
Sequence of CK2a2 (P19784 whole entry): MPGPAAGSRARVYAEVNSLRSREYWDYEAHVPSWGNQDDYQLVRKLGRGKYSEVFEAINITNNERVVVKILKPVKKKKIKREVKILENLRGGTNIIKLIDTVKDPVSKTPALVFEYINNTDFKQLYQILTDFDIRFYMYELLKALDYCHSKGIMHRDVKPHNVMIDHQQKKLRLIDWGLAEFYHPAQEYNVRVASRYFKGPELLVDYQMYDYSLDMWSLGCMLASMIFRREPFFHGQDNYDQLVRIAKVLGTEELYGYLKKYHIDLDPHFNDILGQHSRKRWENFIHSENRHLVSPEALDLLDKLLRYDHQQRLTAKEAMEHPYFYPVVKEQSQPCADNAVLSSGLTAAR
Method: Biochemical Assay for CK2 Activity
Purified CK2a2 (NP_001887; human full-length protein, GST tagged) from insect cells (final concentration 1.2 nM) is added to freshly prepared Base Reaction Buffer containing 20 mM Hepes (pH 7.5), 10 mM MgCl2, 1 mM EGTA, 0.02% Brij35, 0.02 mg/ml BSA, 0.1 mM Na3VO4, 2 mM DTT, 1% DMSO and CK2 sub [RRRDDDSDDD] (20 μM final). Test compounds in DMSO are then added and the mixture, followed by delivery of ^33P-ATP (specific activity 0.01 μCi/μl final) to initiate the reaction. The kinase reaction is incubated for 120 min at room temperature. The entire reaction mixture is washed through onto a P81 Phosphocellulose paper and washed three times for 10 minutes in 75 mM phosphoric acid and once in methanol prior to drying and scintillation counting.

Sequence of PASK (UniProt #Q96RG2; residues 879-1323) (Homo sapiens (Human), UniProt Q96RG2) (Q96RG2 879-1323): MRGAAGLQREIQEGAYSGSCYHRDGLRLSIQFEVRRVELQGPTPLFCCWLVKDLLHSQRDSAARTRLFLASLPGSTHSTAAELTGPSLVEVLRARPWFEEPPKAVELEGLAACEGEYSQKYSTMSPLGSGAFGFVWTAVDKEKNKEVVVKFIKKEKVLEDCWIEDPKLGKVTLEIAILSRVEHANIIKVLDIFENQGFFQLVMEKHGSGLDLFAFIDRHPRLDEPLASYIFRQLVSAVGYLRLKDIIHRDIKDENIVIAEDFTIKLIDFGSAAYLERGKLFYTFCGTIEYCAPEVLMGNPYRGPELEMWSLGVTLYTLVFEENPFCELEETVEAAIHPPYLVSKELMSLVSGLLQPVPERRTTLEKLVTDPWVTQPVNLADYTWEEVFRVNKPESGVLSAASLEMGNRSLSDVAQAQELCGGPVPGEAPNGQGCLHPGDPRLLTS

| Structure (SMILES) | IC50 (PASK [1]) | IC50 (PASK [2]) | IC50 (CK2a2) |
| --- | --- | --- | --- |
| CCCc1c(C)nn2c(=O)cc(-c3ccc(OC)cc3)[nH]c12 [Example 71, 5-(4-Methoxyphenyl)-2-methyl-3-propylpyrazolo[1,5-a]pyrimidin-7(4H)-one] | ≤ 10 µM | ≤ 10 µM | ≥ 10 µM |
| COc1ccc(-c2cc(=O)n3ncc(-c4cccnc4)c3[nH]2)cc1 [Example 72, 5-(4-Methoxyphenyl)-3-(pyridin-3-yl)pyrazolo[1,5-a]pyrimidin-7(4H)-one] | ≤ 10 µM | ≤ 10 µM | ≤ 10 µM |
| Cc1nn2c(=O)cc(-c3ccc4ncccc4c3)[nH]c2c1Cc1ccccc1 [Example 73, 3-Benzyl-2-methyl-5-(quinolin-6-yl)pyrazolo[1,5-a]pyrimidin-7(4H)-one] | ≤ 10 µM | ≤ 10 µM | ≤ 10 µM |
| Cc1nn2c(=O)cc(-c3ccc4c(c3)OCO4)[nH]c2c1Cc1cccc(Cl)c1 [Example 75, 3-(3-Chlorobenzyl)-5-(benzo[d][1,3]dioxol-5-yl)-2-methylpyrazolo[1,5-a]pyrimidin-7(4H)-one] | ≤ 10 µM | ≤ 10 µM | ≤ 10 µM |
| Cc1nn2c(=O)cc(-c3ccc4c(c3)OCO4)[nH]c2c1Cc1ccc(Cl)cc1 [Example 76, 3-(4-Chlorobenzyl)-5-(benzo[d][1,3]dioxol-5-yl)-2-methylpyrazolo[1,5-a]pyrimidin-7(4H)-one] | ≤ 10 µM | ≤ 10 µM | ≤ 10 µM |
| Cc1nn2c(=O)cc(-c3cccnc3)[nH]c2c1-c1ccc(F)cc1 [Example 77, 3-(4-Fluorophenyl)-2-methyl-5-(pyridin-3-yl)pyrazolo[1,5-a]pyrimidin-7(4H)-one] | ≤ 10 µM | – | ≤ 10 µM |
| O=c1cc(-c2ccccn2)[nH]c2c(-c3ccc(F)cc3)cnn12 [Example 79, 3-(4-Fluorophenyl)-5-(pyridin-2-yl)pyrazolo[1,5-a]pyrimidin-7(4H)-one] | ≤ 10 µM | – | ≤ 10 µM |
| Cc1nn2c(=O)cc(-c3ccc4c(c3)OCCO4)[nH]c2c1-c1ccc(F)cc1 [Example 81, 5-(2,3-Dihydrobenzo[b][1,4]dioxin-6-yl)-3-(4-fluorophenyl)-2-methylpyrazolo[1,5-a]pyrimidin-7(4H)-one] | ≤ 10 µM | ≤ 10 µM | ≤ 10 µM |
| COc1cccc(-c2cnn3c(=O)cc(-c4ccc5c(c4)OCCO5)[nH]c23)c1 [Example 92, 5-(2,3-Dihydrobenzo[b][1,4]dioxin-6-yl)-3-(3-methoxyphenyl)pyrazolo[1,5-a]pyrimidin-7(4H)-one] | ≤ 10 µM | ≤ 10 µM | ≤ 10 µM |
| O=c1cc(-c2cc3ccccc3o2)[nH]c2c(-c3ccccn3)cnn12 [Example 93, 5-(Benzofuran-2-yl)-3-(pyridin-2-yl)pyrazolo[1,5-a]pyrimidin-7(4H)-one] | ≤ 10 µM | ≤ 10 µM | – |
| O=c1cc(-c2ccc3cc[nH]c3c2)[nH]c2c(-c3ccccc3)cnn12 [Example 95, 5-(1H-Indol-6-yl)-3-phenylpyrazolo[1,5-a]pyrimidin-7(4H)-one] | ≤ 10 µM | – | ≤ 10 µM |
| O=c1cc(-c2ccc3c(c2)CCO3)[nH]c2c(-c3ccccn3)cnn12 [Example 96, 5-(2,3-Dihydrobenzofuran-5-yl)-3-(pyridin-2-yl)pyrazolo[1,5-a]pyrimidin-7(4H)-one] | ≤ 10 µM | ≤ 10 µM | ≤ 10 µM |
| O=c1cc(-c2ccc3occc3c2)[nH]c2c(-c3ccccc3)cnn12 [Example 97, 5-(Benzofuran-5-yl)-3-phenylpyrazolo[1,5-a]pyrimidin-7(4H)-one] | ≤ 10 µM | ≤ 10 µM | ≤ 10 µM |
| O=c1cc(-c2ccc3c(c2)CCO3)[nH]c2c(-c3ccccc3)cnn12 [Example 98, 5-(2,3-Dihydrobenzofuran-5-yl)-3-phenylpyrazolo[1,5-a]pyrimidin-7(4H)-one] | ≤ 10 µM | ≤ 10 µM | ≤ 10 µM |
| O=c1cc(-c2ccc3c(c2)CCO3)[nH]c2c(-c3cccnc3)cnn12 [Example 99, 5-(2,3-Dihydrobenzofuran-5-yl)-3-(pyridin-3-yl)pyrazolo[1,5-a]pyrimidin-7(4H)-one] | ≤ 10 µM | ≤ 10 µM | ≤ 10 µM |
| O=c1cc(-c2ccc3c(c2)OCO3)[nH]c2c(-c3cccnc3)c(O)nn12 [Example 100, 5-(Benzo[d][1,3]dioxol-5-yl)-2-hydroxy-3-(pyridin-3-yl)pyrazolo[1,5-a]pyrimidin-7(4H)-one] | ≤ 10 µM | ≤ 10 µM | ≤ 10 µM |
| O=c1cc(-c2ccc3c(c2)OCCO3)[nH]c2c(-c3ccccn3)c(O)nn12 [Example 102, 5-(2,3-Dihydrobenzo[b][1,4]dioxin-6-yl)-2-hydroxy-3-(pyridin-2-yl)pyrazolo[1,5-a]pyrimidin-7(4H)-one] | ≤ 10 µM | ≤ 10 µM | ≤ 10 µM |
| O=c1cc(-c2ccc3c(c2)OCCO3)[nH]c2c(-c3ccccc3)c(O)nn12 [Example 103, 5-(2,3-Dihydrobenzo[b][1,4]dioxin-6-yl)-2-hydroxy-3-phenylpyrazolo[1,5-a]pyrimidin-7(4H)-one] | ≤ 10 µM | ≤ 10 µM | ≤ 10 µM |
| O=C(c1cnn2c(=O)cc(-c3ccc4c(c3)OCCO4)[nH]c12)N1CCOCC1 [Example 106, 5-(2,3-Dihydrobenzo[b][1,4]dioxin-6-yl)-3-(morpholine-4-carbonyl)pyrazolo[1,5-a]pyrimidin-7(4H)-one] | ≤ 10 µM | ≤ 10 µM | ≤ 10 µM |
| CN1CCN(C(=O)c2cnn3c(=O)cc(-c4ccc5c(c4)OCCO5)[nH]c23)CC1 [Example 107, 5-(2,3-Dihydrobenzo[b][1,4]dioxin-6-yl)-3-(4-methylpiperazine-1-carbonyl)pyrazolo[1,5-a]pyrimidin-7(4H)-one] | ≤ 10 µM | ≤ 10 µM | ≤ 10 µM |
| O=C(NCc1ccccc1)c1cnn2c(=O)cc(-c3ccc4c(c3)OCCO4)[nH]c12 [Example 108, N-Benzyl-5-(2,3-dihydrobenzo[b][1,4]dioxin-6-yl)-7-oxo-4,7-dihydropyrazolo[1,5-a]pyrimidine-3-carboxamide] | ≤ 10 µM | ≤ 10 µM | ≤ 10 µM |
| O=c1cc(-c2ccc(Cl)cc2)[nH]c2c(-c3ccccn3)cnn12 [Example 109, 5-(4-Chlorophenyl)-3-(pyridin-2-yl)pyrazolo[1,5-a]pyrimidin-7(4H)-one] | ≤ 10 µM | ≤ 10 µM | ≤ 10 µM |
| COc1ccc(-c2cc(=O)n3ncc(-c4ccccn4)c3[nH]2)c(OC)c1 [Example 110, 5-(2,4-Dimethoxyphenyl)-3-(pyridin-2-yl)pyrazolo[1,5-a]pyrimidin-7(4H)-one] | ≤ 10 µM | ≤ 10 µM | ≤ 10 µM |
| COc1ccc(-c2cc(=O)n3ncc(-c4ccccn4)c3[nH]2)cc1OC [Example 111, 5-(3,4-Dimethoxyphenyl)-3-(pyridin-2-yl)pyrazolo[1,5-a]pyrimidin-7(4H)-one] | ≤ 10 µM | ≤ 10 µM | ≤ 10 µM |
| N#Cc1cnn2c(=O)cc(-c3ccc4c(c3)OCCO4)[nH]c12 [Example 113, 5-(2,3-Dihydrobenzo[b][1,4]dioxin-6-yl)-7-oxo-4,7-dihydropyrazolo[1,5-a]pyrimidine-3-carbonitrile] | ≤ 10 µM | ≤ 10 µM | ≤ 10 µM |
| NC(=O)c1cnn2c(=O)cc(-c3ccc4c(c3)OCCO4)[nH]c12 [Example 114, 5-(2,3-Dihydrobenzo[b][1,4]dioxin-6-yl)-7-oxo-4,7-dihydropyrazolo[1,5-a]pyrimidine-3-carboxamide] | ≤ 10 µM | ≤ 10 µM | ≤ 10 µM |
| O=c1c2c([nH]c3c(-c4ccccn4)cnn13)-c1ccccc1CC2 [Example 116, 11-(Pyridin-2-yl)-5,6-dihydrobenzo[h]pyrazolo[5,1-b]quinazolin-7(12H)-one] | ≤ 10 µM | ≤ 10 µM | ≤ 10 µM |
| O=c1cc(-c2ccc3c(c2)OCCO3)[nH]c2c(-c3ccccc3)c(C(F)(F)F)nn12 [Example 117, 5-(2,3-Dihydrobenzo[b][1,4]dioxin-6-yl)-3-phenyl-2-(trifluoromethyl)pyrazolo[1,5-a]pyrimidin-7(4H)-one] | ≤ 10 µM | ≤ 10 µM | ≤ 10 µM |
